Assay results reported in patent US20060014812A1, “Use of estrogen related receptor-modulating aryl ethers” (priority 2004, published 2006).

Molecular target: T1, ligand binding domain of ERR-α (aa 183-424) (Homo sapiens, UniProt P11474)
T1 construct: His tag (N); thrombin cleavage site (N); made in house; host or cells: E. coli BL21(DE3+)
T1 sequence (P11474 183-423 limits assumed): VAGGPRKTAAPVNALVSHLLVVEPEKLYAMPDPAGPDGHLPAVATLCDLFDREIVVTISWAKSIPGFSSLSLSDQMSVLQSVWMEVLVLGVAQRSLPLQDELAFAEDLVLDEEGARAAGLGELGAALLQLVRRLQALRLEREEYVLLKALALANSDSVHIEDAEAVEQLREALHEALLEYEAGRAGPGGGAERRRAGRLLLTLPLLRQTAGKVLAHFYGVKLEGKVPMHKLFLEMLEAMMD
Assay: ThermoFluor thermal-shift binding affinity screen against ERR-α ligand binding domain
Details: 100 μM test compound, 0.1 mg/mL ERR-α, pH 7.6, Kd estimated from melting temperature shift at reference temperature, read-out: TF Kd
Method: The ligand binding domain of ERR-α (aa 183-424) was subcloned in frame with the N-terminal His tag and the cleavable thrombin site in pET28. The protein was expressed in BL21(DE3^+) following induction with 100 μM IPTG at 16° C. Cells were harvested after 16 hours (h) of induction and lysed in 20 mM Tris pH 7.5, 500 mM NaCl, 5 mM imidazole, 5% glycerol, protease inhibitor cocktail (-EDTA) and 2 mM β-ME. Insoluble material was removed by centrifugation at 40,000×g for 1 hr. Clarified homogenate was applied on a Ni-NTA column and after applying an imidazole gradient the protein was eluted. The protein was further purified on size exclusion chromatography to an apparent homogeneity of 95% as judged by SDS-PAGE chromatography.
Binding affinities of compounds were determined by screening against the ligand binding domain of ERR-α using ThermoFluor® technology (U.S. Pat. No. 6,020,141 and U.S. Pat. No. 6,036,920, and Journal of Biomolecular Screening 6 (6), […], pgs 429-440). Assay plates were prepared by dispensing 2 μL of a protein-dye solution and 2 μL of the test compound in a 384-well plate. The conditions used in the screen were: 0.1 mg/mL ERR-α, 25 mM Na-phosphate buffer at pH 7.6, 200 mM NaCl, 10% glycerol, 16 μM ANS, 2% DMSO and the final concentration of test compound was 100 μM. Finally 1 μL of mineral oil was dispensed on top to prevent evaporation during the high throughput screen (HTS). ThermoFluor® is an HTS assay that measures protein unfolding based on fluorescence detection of the denatured form of the protein. The reporter for the protein unfolding event is the environmentally sensitive dye ANS that is incorporated in the screening buffer. During a typical experiment the 384-well plate is heated at a ramping rate of 1° C./min and the thermal unfolding of the protein is monitored at 1° C. intervals by measuring fluorescence changes detected through a CCD camera. Captured images are integrated and a melting curve is generated that relates fluorescence to fraction of unfolded protein as a function of temperature. For the ERR-α screen, data were collected from 30 to 80° C. at 1° C. intervals and the protein melted under the screening conditions with a characteristic melting temperature, Tm, of 52.1° C. Hits were identified from the screen by measuring an increase in the melting temperature of the protein.
In order to estimate binding affinities, it was taken into account that the oligomeric state of ERR-α, which is a dimer (N2), and that of a single ligand (Lf) can interact per monomer subunit with equal affinity. The melting curve for such a system is described by the following three equilibria: [formula] The first equilibrium describes the denaturation of ERR-α dimers; the second equilibrium describes the dissociation of the first ligand from the single ligand occupied ERR-α dimers (N2L); and the third equilibrium describes the dissociation of the second ligand from the fully occupied ERR-α dimers (N2L2).
Following the derivations of Brandts and Lin (Biochemistry, 29, 6967, 1990) the dissociation constants for the ligands (Kd1^t^m) can be determined at T=Tm for any ligand concentration Lt by solving numerically the conservation of mass equations: [formula] and Ku is in the unfolding equilibrium constant for ERR-α dimers that is calculated from the melting curve of the protein in the absence of ligand as described by Pantoliano et al. (J. Biomolecular Screening, 6, 429, 2001) and Bowie & Sauer (Biochemistry, 28, 7139, 1989).
To compare dissociation constants at a common reference temperature, Tref, the following equation was used: [formula] where • Kd^ref=is the dissociation constant of the ligand at a reference temperature Tref • ΔHb^ref=is the binding enthalpy of the ligand to the protein at a reference temperature Tref. […]

SMILES | Kd [µM]
COc1cc(/C=C(/C(=O)c2cccs2)C(=O)C(F)(F)F)ccc1Oc1ccc(C(F)(F)F)cc1[N+](=O)[O-] [Example 29, 4,4,4-Trifluoro-2-[3-methoxy-4-(2-nitro-4-trifluoromethyl-phenoxy)-benzylidene]-1-thiophen-2-yl-butane-1,3-dione] | 15.4
COc1ccc(Oc2ccc(C=C3SC(N)=NC3=O)cc2)cc1 [Example 9, 2-Amino-5-[4-(4-methoxy-phenoxy)-benzylidene]-thiazol-4-one] | 24.7
COc1cc(/C=C2\SC(=O)NC2=O)ccc1Oc1ccc(C(F)(F)F)cc1[N+](=O)[O-] [Example 10, 5-[3-Methoxy-4-(2-nitro-4-trifluoromethyl-phenoxy)-benzylidene]-thiazolidine-2,4-dione] | 0.234
CCN1C(=O)/C(=C\c2ccc(Oc3ccc(C(F)(F)F)cc3[N+](=O)[O-])c(OC)c2)SC1=S [Example 36, 3-Ethyl-5-[3-methoxy-4-(2-nitro-4-trifluoromethyl-phenoxy)-benzylidene]-2-thioxo-thiazolidin-4-one] | 20.3
COc1cc(/C=C(\C#N)c2nc3ccccc3[nH]2)ccc1Oc1ccc(C(F)(F)F)cc1[N+](=O)[O-] [Example 26, 2-(1H-Benzoimidazol-2-yl)-3-[3-methoxy-4-(2-nitro-4-trifluoromethyl-phenoxy)-phenyl]-acrylonitrile] | 15.2
COc1cc(/C=C2\C(=O)N(c3ccccc3)N=C2C)ccc1Oc1ccc(C(F)(F)F)cc1[N+](=O)[O-] [Example 30, 4-[3-Methoxy-4-(2-nitro-4-trifluoromethyl-phenoxy)-benzylidene]-5-methyl-2-phenyl-2,4-dihydro-pyrazol-3-one] | 1.16
COc1cc(C=C2C(=O)c3ccccc3C2=O)ccc1OCc1cccc(F)c1 [Example 40, 2-[4-(3-Fluoro-benzyloxy)-3-methoxy-benzylidene]-indan-1,3-dione] | 17.7
COc1cc(/C=C2\SC(=O)NC2=O)ccc1OCc1cccc(F)c1 [Example 38, 5-[4-(3-Fluoro-benzyloxy)-3-methoxy-benzylidene]-thiazolidine-2,4-dione] | 3.18
COC(=O)c1ccc(Oc2ccc(/C=C3\SC(=O)NC3=O)cc2OC)c([N+](=O)[O-])c1 [Example 18, 4-[4-(2,4-Dioxo-thiazolidin-5-ylidenemethyl)-2-methoxy-phenoxy]-3-nitro-benzoic acid methyl ester] | 0.0692
COc1ccc(Oc2ccc(/C=C3\SC(=O)NC3=O)cc2)cc1 [Example 16, 5-[4-(4-Methoxy-phenoxy)-benzylidene]-thiazolidine-2,4-dione] | 3.53
COc1cc(C=C2C(=O)c3ccccc3C2=O)ccc1Oc1ccc(C(F)(F)F)cc1[N+](=O)[O-] [Example 33, 2-[3-4-(2-nitro-4-trifluoromethyl-phenoxy)-benzylidene]-indan-1,3-dione] | 0.473
COc1cc(/C=C(\C#N)S(=O)(=O)c2ccccc2)ccc1Oc1ccc(C(F)(F)F)cc1[N+](=O)[O-] [Example 23, 2-Benzenesulfonyl-3-[3-methoxy-4-(2-nitro-4-trifluoromethyl-phenoxy)-phenyl]-acrylonitrile] | 14.6
COc1cc(/C=C2\SC(=O)NC2=O)ccc1OCc1ccc(F)cc1Cl [Example 37, 5-[4-(2—Chloro-4-fluoro-benzyloxy)-3-methoxy-benzylidene]-thiazolidine-2,4-dione] | 0.414
O=C1NC(=O)/C(=C\c2cccc(Oc3cccc(Cl)c3)c2)S1 [Example 21, 5-[3-(3-Chloro-phenoxy)-benzylidene]-thiazolidine-2,4-dione] | > 200
CCCCN1C(=O)S/C(=C\c2ccc(Oc3ccc(C(F)(F)F)cc3[N+](=O)[O-])c(OC)c2)C1=O [Example 19, 3-Butyl-5-[3-methoxy-4-(2-nitro-4-trifluoromethyl-phenoxy)-benzylidene]-thiazolidine-2,4-dione] | 2.7
COc1cc(/C=C(\C#N)C(=O)c2ccccc2)ccc1Oc1ccc(C(F)(F)F)cc1[N+](=O)[O-] [Example 28, 2-Benzoyl-3-[3-methoxy-4-(2-nitro-4-trifluoromethyl-phenoxy)-phenyl]-acrylonitrile] | 0.608
COc1cc(/C=C(\C#N)c2cccs2)ccc1Oc1ccc(C(F)(F)F)cc1[N+](=O)[O-] [Example 25, 3-[3-Methoxy4-(2-nitro4-trifluoromethyl-phenoxy)-phenyl]-2-thiophen-2-yl-acrylonitrile] | 7.17

Further compounds by falling Kd, results first:

Kd [µM] | SMILES
79.5 | COc1cc(/C=C2\SC(=O)NC2=O)cc(Cl)c1Oc1ccc(C(F)(F)F)cc1[N+](=O)[O-] [Example 13, 5-[3-Chloro-5-methoxy-4-(2-nitro-4-trifluoromethyl-phenoxy)-benzylidene]-thiazolidine-2,4-dione]
9.5 | O=C1NC(=O)/C(=C/c2ccc(Oc3ccccc3)cc2)S1 [Example 20, 5-(4-Phenoxy-benzylidene)-thiazolidine-2,4-dione]
5.06 | COc1cc(C=C(C#N)C#N)ccc1Oc1ccc(C(F)(F)F)cc1[N+](=O)[O-] [Example 22, 2-[3-Methoxy-4-(2-nitro-4-trifluoromethyl-phenoxy)-benzylidene]-malononitrile]
4.86 | CCOC(=O)CN1C(=O)S/C(=C\c2ccc(Oc3ccc(C(F)(F)F)cc3[N+](=O)[O-])c(OC)c2)C1=O [Example 17, {5-[3-Methoxy-4-(2-nitro-4-trifluoromethyl-phenoxy)-benzylidene]-2,4-dioxo-thiazolidin-3-yl}-acetic acid ethyl ester]
2.54 | CCOC(=O)/C(C#N)=C/c1ccc(Oc2ccc(C(F)(F)F)cc2[N+](=O)[O-])c(OC)c1 [Example 24, 2-Cyano-3-[3-methoxy-4-(2-nitro-4-trifluoromethyl-phenoxy)-phenyl]-acrylic acid ethyl ester]
2.2 | COc1cc(/C=C2/NC(=S)NC2=O)ccc1Oc1ccc(C(F)(F)F)cc1[N+](=O)[O-] [Example 31, 5-[3-4-(2-nitro-4-trifluoromethyl-phenoxy)-benzylidene]-2-thioxo-imidazolidin-4 4-one]
1.38 | COc1cc(/C=C(\C#N)c2ccccn2)ccc1Oc1ccc(C(F)(F)F)cc1[N+](=O)[O-] [Example 27, 3-[3-Methoxy-4-(2-nitro-4-trifluoromethyl-phenoxy)-phenyl]-2-pyridin-2-yl-acrylonitrile]
0.795 | COc1cc(/C=C2\C(=O)ON=C2c2ccccc2)ccc1Oc1ccc(C(F)(F)F)cc1[N+](=O)[O-] [Example 32, 4-[3-4-(2-nitro-4-trifluoromethyl-phenoxy)-benzylidene]-3-phenyl-4H-isoxazol-5-one]
0.588 | O=C1NC(=O)/C(=C/c2ccc(Oc3ccc(C(F)(F)F)cc3[N+](=O)[O-])cc2)S1 [Example 14, 5-[4-(2-Nitro-4-trifluoromethyl-phenoxy)-benzylidene]-thiazolidine-2,4-dione]
0.52 | COC(=O)c1ccc(Oc2ccc(C=C3C(=O)c4ccccc4C3=O)cc2OC)c([N+](=O)[O-])c1 [Example 35, 4-[4-(1,3-Dioxo-indan-2-ylidenemethyl)-2-methoxy-phenoxy]-3-nitro-benzoic acid methyl ester]
